Experimental findings from ChEMBL document CHEMBL3297690, “Discovery and development of Janus kinase (JAK) inhibitors for inflammatory diseases” (J Med Chem, 2014) are described below.

Assay [1] concerns the target T1, Tyrosine-protein kinase JAK2 (Homo sapiens, UniProt O60674).
Assay [2] deals with T2, Tyrosine-protein kinase JAK1 (Homo sapiens, UniProt P23458).
Assay [3] concerns the target T1, Tyrosine-protein kinase JAK2. In kind it is cell-based, Blood, CD34+ cell.
Assay [4] addresses T3, Tyrosine-protein kinase JAK3 (Mus musculus, UniProt Q62137).
T3 sequence (Q62137 whole entry): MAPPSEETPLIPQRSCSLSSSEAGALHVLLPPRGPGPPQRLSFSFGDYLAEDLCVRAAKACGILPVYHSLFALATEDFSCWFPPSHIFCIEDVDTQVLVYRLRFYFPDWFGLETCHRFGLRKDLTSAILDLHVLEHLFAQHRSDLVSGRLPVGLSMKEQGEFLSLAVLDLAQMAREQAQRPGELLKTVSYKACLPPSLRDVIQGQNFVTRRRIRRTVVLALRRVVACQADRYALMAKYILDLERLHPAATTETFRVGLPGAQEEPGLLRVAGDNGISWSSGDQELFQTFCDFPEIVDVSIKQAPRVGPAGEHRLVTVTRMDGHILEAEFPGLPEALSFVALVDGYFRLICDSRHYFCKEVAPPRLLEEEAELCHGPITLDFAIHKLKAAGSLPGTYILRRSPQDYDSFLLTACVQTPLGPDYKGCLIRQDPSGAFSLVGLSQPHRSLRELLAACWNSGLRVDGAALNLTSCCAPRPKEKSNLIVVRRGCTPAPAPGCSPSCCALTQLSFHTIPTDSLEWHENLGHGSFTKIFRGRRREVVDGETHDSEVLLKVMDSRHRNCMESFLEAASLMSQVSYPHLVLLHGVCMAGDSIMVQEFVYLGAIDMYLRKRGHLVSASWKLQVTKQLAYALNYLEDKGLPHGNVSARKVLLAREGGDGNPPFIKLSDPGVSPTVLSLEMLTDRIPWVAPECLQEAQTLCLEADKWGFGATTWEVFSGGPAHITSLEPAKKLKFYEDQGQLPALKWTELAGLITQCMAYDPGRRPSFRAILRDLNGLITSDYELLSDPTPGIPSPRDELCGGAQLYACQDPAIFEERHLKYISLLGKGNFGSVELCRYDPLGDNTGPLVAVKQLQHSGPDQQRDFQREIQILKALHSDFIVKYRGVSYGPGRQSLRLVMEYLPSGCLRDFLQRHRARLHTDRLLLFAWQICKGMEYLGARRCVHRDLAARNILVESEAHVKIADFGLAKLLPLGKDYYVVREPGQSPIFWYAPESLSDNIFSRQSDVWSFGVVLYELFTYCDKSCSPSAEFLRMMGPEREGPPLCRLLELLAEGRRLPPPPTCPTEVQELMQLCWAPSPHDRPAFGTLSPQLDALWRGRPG
In kind it is cell-based.

Assay [5] concerns the target T1, Tyrosine-protein kinase JAK2. The source holds these as a separate data set.
The target in assay [6] is T2, Tyrosine-protein kinase JAK1. It counts as cell-based.

T1 sequence (O60674 whole entry): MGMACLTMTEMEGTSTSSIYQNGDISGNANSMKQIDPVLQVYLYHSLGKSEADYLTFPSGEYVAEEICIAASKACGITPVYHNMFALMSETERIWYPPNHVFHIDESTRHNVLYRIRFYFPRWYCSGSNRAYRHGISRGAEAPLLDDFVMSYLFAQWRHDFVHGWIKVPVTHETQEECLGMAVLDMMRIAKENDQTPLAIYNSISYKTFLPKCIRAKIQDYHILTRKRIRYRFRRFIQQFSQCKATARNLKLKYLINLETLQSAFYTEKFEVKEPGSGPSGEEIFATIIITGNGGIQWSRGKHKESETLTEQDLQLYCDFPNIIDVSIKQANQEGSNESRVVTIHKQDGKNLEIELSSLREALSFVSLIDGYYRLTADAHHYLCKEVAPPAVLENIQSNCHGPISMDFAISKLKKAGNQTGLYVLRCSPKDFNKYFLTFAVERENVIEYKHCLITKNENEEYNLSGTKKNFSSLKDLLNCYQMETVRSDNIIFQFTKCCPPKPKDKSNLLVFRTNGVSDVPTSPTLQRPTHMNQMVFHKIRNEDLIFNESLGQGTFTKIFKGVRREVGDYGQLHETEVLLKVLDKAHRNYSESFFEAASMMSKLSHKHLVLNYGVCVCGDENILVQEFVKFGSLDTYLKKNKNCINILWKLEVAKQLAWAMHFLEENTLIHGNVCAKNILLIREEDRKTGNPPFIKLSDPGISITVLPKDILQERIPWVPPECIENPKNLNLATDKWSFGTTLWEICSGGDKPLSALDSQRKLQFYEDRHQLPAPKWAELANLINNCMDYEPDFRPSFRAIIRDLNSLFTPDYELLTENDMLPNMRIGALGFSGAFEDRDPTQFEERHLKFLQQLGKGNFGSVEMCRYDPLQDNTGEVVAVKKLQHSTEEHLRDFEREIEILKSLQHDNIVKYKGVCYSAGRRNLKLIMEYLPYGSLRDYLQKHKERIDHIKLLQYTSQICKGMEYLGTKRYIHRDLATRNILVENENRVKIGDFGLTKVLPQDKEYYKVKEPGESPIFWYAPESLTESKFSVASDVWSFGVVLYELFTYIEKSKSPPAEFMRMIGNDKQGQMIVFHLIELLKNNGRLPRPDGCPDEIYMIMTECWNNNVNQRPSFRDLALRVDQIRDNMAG
T2 sequence (P23458 whole entry): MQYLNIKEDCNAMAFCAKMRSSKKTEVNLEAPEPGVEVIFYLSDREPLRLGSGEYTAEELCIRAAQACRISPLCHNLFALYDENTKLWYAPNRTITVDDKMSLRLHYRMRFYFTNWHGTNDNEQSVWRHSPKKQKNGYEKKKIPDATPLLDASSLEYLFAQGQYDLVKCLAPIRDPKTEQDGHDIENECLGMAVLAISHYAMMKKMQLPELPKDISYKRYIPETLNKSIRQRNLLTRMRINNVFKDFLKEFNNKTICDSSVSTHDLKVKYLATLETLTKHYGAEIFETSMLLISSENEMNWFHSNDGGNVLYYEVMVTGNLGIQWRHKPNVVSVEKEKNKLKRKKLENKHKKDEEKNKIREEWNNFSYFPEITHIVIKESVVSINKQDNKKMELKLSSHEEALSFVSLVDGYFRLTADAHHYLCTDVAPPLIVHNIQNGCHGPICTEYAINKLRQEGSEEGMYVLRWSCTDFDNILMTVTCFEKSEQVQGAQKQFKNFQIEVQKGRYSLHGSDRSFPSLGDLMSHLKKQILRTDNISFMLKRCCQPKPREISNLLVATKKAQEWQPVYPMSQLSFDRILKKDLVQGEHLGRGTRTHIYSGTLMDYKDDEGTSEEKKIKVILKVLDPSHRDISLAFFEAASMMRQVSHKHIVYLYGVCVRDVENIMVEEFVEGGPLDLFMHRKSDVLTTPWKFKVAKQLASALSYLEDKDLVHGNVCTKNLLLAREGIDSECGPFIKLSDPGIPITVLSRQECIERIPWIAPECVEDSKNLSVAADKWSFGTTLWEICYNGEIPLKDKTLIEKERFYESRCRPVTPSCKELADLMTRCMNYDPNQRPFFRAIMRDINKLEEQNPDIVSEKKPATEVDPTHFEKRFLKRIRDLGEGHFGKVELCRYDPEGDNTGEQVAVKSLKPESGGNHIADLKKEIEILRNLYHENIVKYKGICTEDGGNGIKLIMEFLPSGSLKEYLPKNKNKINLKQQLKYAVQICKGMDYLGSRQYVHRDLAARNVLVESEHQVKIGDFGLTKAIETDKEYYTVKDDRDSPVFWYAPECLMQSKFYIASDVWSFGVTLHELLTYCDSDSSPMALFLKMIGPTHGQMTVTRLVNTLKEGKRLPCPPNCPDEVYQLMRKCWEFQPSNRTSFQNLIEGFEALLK

In general, IC50 refers to the concentration needed to halve the response being measured. One may read the Ki as the dissociation constant of the complex between target and ligand, obtained from inhibition or displacement. Higher therefore signals lower affinity. For the compound `CC[C@@](C)(Nc1ccnc(-c2c[nH]c3ncccc23)n1)C(=O)NCC(F)(F)F` [DECERNOTINIB], the IC50 in assay [1] is 24 nM; in assay [2] it was 13.2 nM; in assay [3], over 10000 nM; in assay [4], 50 nM; in assay [5] it was 619 nM; in assay [6], 50 nM. The compound further had an inhibitory constant (Ki) in assay [5] of 13 nM.
